Consider one compound from publication PMC3407089, “Influence of GABAA Receptor α Subunit Isoforms on the Benzodiazepine Binding Site” (PLoS ONE, 2012).

Each structure is given as a SMILES string.

The target of one assay is T1, α2β2γ2 receptors (Rattus norvegicus, UniProt P18508+P23576).
T1 construct: expressed in transfected cells; host or cells: HEK293 cells (ATCC CRL 1573), membranes
In words: Radioactive ligand binding / displacement of [^3H]Ro 15–1788. As for the experimental part: For α5 containing receptors β2 was replaced by β1. […] Culturing of cells and membrane preparation were done as described before.
The properties of the recombinant mutant receptors were only estimated. For this affinity estimate, membranes were re-suspended in phosphate buffer using a Teflon homogenizer. […] The final protein concentration was 0.1–1 mg of protein/ml. […] Membranes were collected by rapid vacuum filtration on GF/C filters. After three washing steps (3 sec each) with 5 ml of phosphate buffer, the filter-retained radioactivity was determined by liquid scintillation counting.

In assay [1] the test system is wild type GABAA receptors. In words: Covalent reaction at the functional level (two-electrode voltage clamp, Xenopus oocytes). The class given is cell-based. The settings on record: all wild type receptors. As for the experimental part:
(§1) Capped cRNAs were synthesized (Ambion, Austin, TX, USA) from the linearized plasmids with a cytomegalovirus promotor (pCMVvectors) containing the different subunits, respectively. A poly-A tail of about 400 residues was added to each transcript using yeast poly- A polymerase (United States Biologicals, Cleveland, OH, USA). The concentration of the cRNA was quantified on a formaldehyde gel using Radiant Red stain (Bio-Rad) for visualization of the RNA. Known concentrations of RNA ladder (Invitrogen) were loaded as standard on the same gel. cRNAs were precipitated in ethanol/isoamylalcohol 19∶ 1, the dried pellet dissolved in water and stored at −80°C. cRNA mixtures were prepared from these stock solutions and stored at −80°C. Xenopus laevis oocytes were prepared, injected and defolliculated as described previously, [39]. They were injected with 50 nL of the cRNA solution containing wild type or mutated α1 or α2, α3, α5, α6 and wild type β2 and γ2 subunits at a concentration of 10 nM : 10 nM : 50 nM [40] and then incubated in modified Barth’s solution at +18°C for at least 24 h before the measurements.
(§2) Currents were measured using a modified two-electrode voltage clamp amplifier Oocyte clamp OC-725 (Warner Instruments) in combination with a XY-recorder (90% response time 0.1s) or digitized at 100 Hz using a PowerLab 2/20 (AD Instruments) using the computer programs Chart (ADInstruments GmbH, Spechbach, Germany). Tests with a model oocyte were performed to ensure linearity in the larger current range. The response was linear up to 15 µA.
(§3) Electrophysiological experiments were performed by using the two-electrode voltage clamp method at a holding potential of −80 mV. The perfusion medium contained 90 mM NaCl, 1 mM KCl, 1 mM MgCl2, 1 mM CaCl2, and 5 mM Na-HEPES (pH 7.4) and was applied by gravity flow 6 ml/min. The perfusion medium was applied through a glass capillary with an inner diameter of 1.35 mm, the mouth of which was placed about 0.4 mm from the surface of the oocyte. Allosteric modulation via the benzodiazepine site was measured at a GABA concentration eliciting 2–5% of the maximal GABA current amplitude. GABA was applied for 20 s alone or in combination with allosteric compound. 6 ml of the covalent reacting compound was applied to the oocyte and incubated for 3 min while stopping the flow of the perfusion medium. Modulation of GABA currents was expressed as (I(modulator + GABA)/IGABA –1) * 100%. The perfusion system was cleaned between drug applications by washing with DMSO to avoid contamination.
Background: In two-electrode clamp one electrode senses voltage and the other passes current.

For assay [2], the system named is α1S204Cβ2γ2 GABAA receptor. The description is as above. Type of assay: cell-based. The note with it: after 10 µM 3-NCS and removal of non-covalently reacted 3-NCS. As for the experimental part: as §1, §2, §3
In assay [3] the test system is α3S230Cβ2γ2 GABAA receptor. The assay is described as above. Type of assay: cell-based. The note with it: after 10 µM 3-NCS and removal of non-covalently reacted 3-NCS. As for the experimental part: as §1, §2, §3
The subject of assay [4] is α3T231Cβ2γ2 GABAA receptor. Described as above. Type of assay: cell-based. The note with it: after 10 µM 3-NCS and removal of non-covalently reacted 3-NCS. As for the experimental part:
as §1, §2, §3

Assay [5] relates to α5S209Cβ2γ2 GABAA receptor. The description is as above. The class given is cell-based. The note with it: after 10 µM 3-NCS and removal of non-covalently reacted 3-NCS. As for the experimental part: as §1, §2, §3
Assay [6] deals with α5T208Cβ2γ2 GABAA receptor. The assay is described as above. Type of assay: cell-based. The settings on record: after 10 µM 3-NCS and removal of non-covalently reacted 3-NCS. As for the experimental part: as §1, §2, §3
The test system of assay [7] is T2, α5T210Cβ2γ2 GABAA receptor.
T2 construct: expressed in transfected cells; host or cells: Xenopus laevis oocytes (cRNA injection)
The assay is described as above. Type of assay: cell-based. The note with it: after 10 µM 3-NCS and removal of non-covalently reacted 3-NCS. As for the experimental part:
as §1, §2, §3

The test system of assay [8] is α6N204Cβ2γ2 GABAA receptor. The description is as above. Type of assay: cell-based. The note with it: after 10 µM 3-NCS and removal of non-covalently reacted 3-NCS. Here is the method:
as §1, §2, §3

The subject of assay [9] is α6S203Cβ2γ2 GABAA receptor. The description is as above. Type of assay: cell-based. The settings on record: after 10 µM 3-NCS and removal of non-covalently reacted 3-NCS. Here is the method: as §1, §2, §3
In a further assay the target is α5β1γ2 receptors (Rattus norvegicus, UniProt P18508+P19969). Put plainly: biochemical.
Chain of α5β1γ2 receptors (P19969 32-464 limits assumed): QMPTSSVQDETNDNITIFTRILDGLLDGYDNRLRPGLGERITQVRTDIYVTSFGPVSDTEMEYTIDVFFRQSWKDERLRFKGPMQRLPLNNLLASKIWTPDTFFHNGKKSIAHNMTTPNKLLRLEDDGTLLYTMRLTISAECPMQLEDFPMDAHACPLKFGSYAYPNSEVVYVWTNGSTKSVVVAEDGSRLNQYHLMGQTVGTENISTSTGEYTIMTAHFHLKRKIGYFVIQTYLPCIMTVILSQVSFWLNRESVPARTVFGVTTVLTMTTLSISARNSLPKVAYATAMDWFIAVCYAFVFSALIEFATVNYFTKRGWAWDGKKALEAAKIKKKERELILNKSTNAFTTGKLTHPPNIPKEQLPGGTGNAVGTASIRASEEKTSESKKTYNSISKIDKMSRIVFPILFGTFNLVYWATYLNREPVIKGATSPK
Chain of α5β1γ2 receptors (P15431 26-474 partner): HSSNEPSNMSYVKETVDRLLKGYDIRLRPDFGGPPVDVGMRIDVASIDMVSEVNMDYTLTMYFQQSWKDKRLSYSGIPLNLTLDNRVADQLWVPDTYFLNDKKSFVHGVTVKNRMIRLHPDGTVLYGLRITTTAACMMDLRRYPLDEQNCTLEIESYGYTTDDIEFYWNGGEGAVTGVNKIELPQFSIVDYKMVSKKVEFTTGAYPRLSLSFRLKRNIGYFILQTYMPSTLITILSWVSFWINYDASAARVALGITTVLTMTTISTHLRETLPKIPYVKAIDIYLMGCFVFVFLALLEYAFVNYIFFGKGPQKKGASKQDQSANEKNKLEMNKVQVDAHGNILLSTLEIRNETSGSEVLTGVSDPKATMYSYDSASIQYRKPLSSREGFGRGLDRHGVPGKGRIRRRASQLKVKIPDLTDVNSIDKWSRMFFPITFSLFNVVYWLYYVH
Chain of α5β1γ2 receptors (P18508 39-466): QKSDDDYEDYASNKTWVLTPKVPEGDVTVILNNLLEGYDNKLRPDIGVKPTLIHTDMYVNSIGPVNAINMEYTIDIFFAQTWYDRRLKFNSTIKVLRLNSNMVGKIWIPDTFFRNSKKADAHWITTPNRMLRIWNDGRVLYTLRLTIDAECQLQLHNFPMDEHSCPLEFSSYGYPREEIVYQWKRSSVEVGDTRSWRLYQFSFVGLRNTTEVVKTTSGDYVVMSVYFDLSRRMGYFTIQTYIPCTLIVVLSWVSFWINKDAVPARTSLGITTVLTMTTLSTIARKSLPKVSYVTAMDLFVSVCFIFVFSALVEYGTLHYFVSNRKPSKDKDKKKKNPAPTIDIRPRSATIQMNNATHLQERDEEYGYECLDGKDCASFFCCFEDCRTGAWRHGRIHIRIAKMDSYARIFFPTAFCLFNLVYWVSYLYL

T1 sequence (P23576 29-451): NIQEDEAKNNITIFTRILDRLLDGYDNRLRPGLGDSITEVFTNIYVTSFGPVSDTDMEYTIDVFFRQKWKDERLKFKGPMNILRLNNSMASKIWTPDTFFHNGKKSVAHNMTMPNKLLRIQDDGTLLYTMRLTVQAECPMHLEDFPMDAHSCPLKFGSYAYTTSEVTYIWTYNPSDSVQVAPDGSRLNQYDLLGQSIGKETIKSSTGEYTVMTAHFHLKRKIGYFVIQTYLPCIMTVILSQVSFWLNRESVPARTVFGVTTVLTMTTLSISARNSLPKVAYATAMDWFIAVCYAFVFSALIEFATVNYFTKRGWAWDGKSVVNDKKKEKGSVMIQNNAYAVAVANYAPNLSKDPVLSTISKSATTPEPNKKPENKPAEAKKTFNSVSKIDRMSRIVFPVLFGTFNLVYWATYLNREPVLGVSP
T1 sequence (P63138 25-474 partner limits assumed): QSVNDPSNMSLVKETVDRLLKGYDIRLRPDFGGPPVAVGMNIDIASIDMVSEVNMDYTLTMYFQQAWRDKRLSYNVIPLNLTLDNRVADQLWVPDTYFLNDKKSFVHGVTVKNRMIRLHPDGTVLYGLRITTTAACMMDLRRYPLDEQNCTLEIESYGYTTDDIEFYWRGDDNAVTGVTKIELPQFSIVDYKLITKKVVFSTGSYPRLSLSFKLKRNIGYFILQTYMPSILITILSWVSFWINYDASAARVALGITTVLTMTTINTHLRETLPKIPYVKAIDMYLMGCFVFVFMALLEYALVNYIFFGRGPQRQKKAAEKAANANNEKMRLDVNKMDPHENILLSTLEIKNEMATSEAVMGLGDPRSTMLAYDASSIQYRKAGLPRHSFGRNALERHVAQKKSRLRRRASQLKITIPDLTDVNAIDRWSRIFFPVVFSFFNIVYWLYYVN
T1 sequence (P18508 39-466): as the sequence (P18508 39-466) above
From the text for α5β1γ2 receptors: Culturing of cells and membrane preparation were done as described before [30].

As a reminder, the Ki is a dissociation constant, usually derived from enzyme kinetics or from competition with a known ligand. As for `CN1C(=O)C(N=C=S)N=C(c2ccccc2)c2cc([N+](=O)[O-])ccc21` (centres unmarked) [3-NCS], the figures for the inhibitory constant (Ki) at α2β2γ2 receptors and at α5β1γ2 receptors were 1.55 ± 0.25 µM and 9.84 ± 1.48 µM, respectively. Also, in assay [1], the “Irreversible change of GABA current amplitude after 3-NCS (in words)” value is “failed to show any changes in the current amplitude”. Also, the “% allosteric modulation, 3-NCS” value in assay [2] amounted to 4±4%; in assay [3], 15±11%; in [4], 28±16%; in [5], 46±17%; in assay [6], 23±18%; in assay [7], 10±5%. Moreover, the “% allosteric modulation, 3-NCS” value was −4±6% in assay [8] and 0±2% in assay [9].
